In US8614206B2 (Genentech, Inc., priority 2011, dated 2013):
pEC50, pIC50: −log10 of the molar value. Like-named read-outs stand apart in the source and are kept apart here.

Tests used:
[1] = test system: MM1.S (multiple myeloma) cells; assay: In vitro cell proliferation, MM1.S multiple myeloma cells (CellTiter-Glo, ATP); type: cell-based; settings: read-out: Prolif MM1S ATP (EC50)
Experimental: BaF3, a murine interleukin-3 dependent pro-B cell line, parental cells, BaF3 PIM1 cells, BaF3 PIM2 cells, and MM1.S (multiple myeloma) cells were seeded at 2 k/well, 5 k/well, 5 k/well, and 10 k/well respectively, in a 384-well plate, at 45 μL/well. Test compound was added at 5 μL/well. BaF3 cells (parental and transfected) were incubated overnight, while MM1.S cells were incubated for 72 hours at 37° C., 5% CO2. […] IC50/EC50 values for the test compound were calculated.

BaF3 parental cells = assay: In vitro cell proliferation, BaF3 parental line + IL3 (CellTiter-Glo); type: cell-based, murine
[2] = Mus musculus, BaF3, BaF3 parental cells with IL-3, incubated overnight, read-out: Prolif BaF3 + IL3 (IC50)
[3] = BaF3 parental cells with IL-3, incubated overnight, read-out: Prolif BaF3 + IL3 (IC50)

Compound | pEC50 ([1]; Homo sapiens, MM1.S, 72 h) | pEC50 ([1]; 72 hours) | pIC50 (BaF3 parental cells; Mus musculus, BaF3, BaF3 parental cells with IL-3, incubated overnight, read-out: Prolif BaF3 IL3 (IC50)) | pIC50 (BaF3 parental cells; [2]) | pIC50 (BaF3 parental cells; [3])
Cn1ncc(NC(=O)c2nc(-c3c(F)cccc3F)sc2N)c1N1CC[C@@H](N)C[C@@H](F)C1 [Example 126, 5-amino-N-(5-((3R,5R)-5-amino-3-fluoroazepan-1-yl)-1-methyl-1H-pyrazol-4-yl)-2-(2,6-difluorophenyl)thiazole-4-carboxamide] | 6.96 | – | < 4.60 | – | –
Cn1ncc(NC(=O)c2nc(-c3c(F)cccc3F)sc2N)c1N1CCNCC2(CC2)C1 [Example 313, 5-amino-N-[5-(5,8-diazaspiro[2.6]nonan-8-yl)-1-methyl-pyrazol-4-yl]-2-(2,6-difluorophenyl)thiazole-4-carboxamide] | 5.19 | – | – | 4.77 | –
COC1CCN(c2c(NC(=O)c3nc(-c4c(F)cccc4F)sc3N)cnn2C)CCC1N (stereo not drawn) [Example 314, 5-amino-N-[5-(4-amino-5-methoxy-azepan-1-yl)-1-methyl-pyrazol-4-yl]-2-(2,6-difluorophenyl)thiazole-4-carboxamide] | – | 5.05 | – | 4.86 | –
COC1CC(N)CCN(c2c(NC(=O)c3nc(-c4c(F)cccc4F)sc3N)cnn2C)C1 (stereo not drawn) [Example 317, 5-amino-N-[5-(5-amino-3-methoxy-azepan-1-yl)-1-methyl-pyrazol-4-yl]-2-(2,6-difluorophenyl)thiazole-4-carboxamide] | – | 6.18 | – | – | < 4.60
COC1CC(N)CCN(c2c(NC(=O)c3nc(-c4c(F)cccc4F)sc3N)cnn2C)C1 (stereo not drawn) [Example 320, 5-amino-N-[5-(5-amino-3-methoxy-azepan-1-yl)-1-methyl-pyrazol-4-yl]-2-(2,6-difluorophenyl)thiazole-4-carboxamide] | – | 6.93 | – | 4.60 | –
Cn1ncc(NC(=O)c2nc(-c3c(F)cccc3F)sc2N)c1N1CC[C@H](O)[C@@](C)(N)CC1 [Example 424, 5-amino-N-(5-((4S,5S)-4-amino-5-hydroxy-4-methylazepan-1-yl)-1-methyl-1H-pyrazol-4-yl)-2-(2,6-difluorophenyl)thiazole-4-carboxamide] | 5.19 | – | – | < 4.60 | –
C=C1C[C@@H](N)CCN(c2c(NC(=O)c3nc(-c4c(F)cccc4F)sc3N)cnn2C)C1 [Example 449, 5-amino-N-[5-[(5R)-5-amino-3-methylene-azepan-1-yl]-1-methyl-pyrazol-4-yl]-2-(2,6-difluorophenyl)thiazole-4-carboxamide] | 5.38 | – | – | 5.07 | –
[2H]C([2H])([2H])n1ncc(NC(=O)c2nc(-c3c(F)cccc3F)sc2N)c1N1CC[C@@H](N)[C@H](F)CC1 [Example 451, 5-amino-N-[5-[(4R,5R)-4-amino-5-fluoro-azepan-1-yl]-1-(trideuteriomethyl)pyrazol-4-yl]-2-(2,6-difluorophenyl)thiazole-4-carboxamide] | 6.91 | – | – | 5.03 | –
COC1(C)CCN(c2c(NC(=O)c3nc(-c4c(F)cccc4F)sc3N)cnn2C)CCC1N (stereo not drawn) [Example 485, 5-amino-N-[5-(5-amino-4-methoxy-4-methyl-azepan-1-yl)-1-methyl-pyrazol-4-yl]-2-(2,6-difluorophenyl)thiazole-4-carboxamide] | 6.38 | – | – | 4.94 | –

Continued, in another order:

pEC50 ([1]; Homo sapiens, MM1.S, 72 h) | pEC50 ([1]; 72 hours) | Compound | pIC50 (BaF3 parental cells; Mus musculus, BaF3, BaF3 parental cells with IL-3, incubated overnight, read-out: Prolif BaF3 IL3 (IC50)) | pIC50 (BaF3 parental cells; [2]) | pIC50 (BaF3 parental cells; [3])
– | 6.79 | COC1CC(N)CCN(c2c(NC(=O)c3nc(-c4c(F)cccc4F)sc3N)cnn2C)C1 (stereo not drawn) [Example 316, 5-amino-N-[5-(5-amino-3-methoxy-azepan-1-yl)-1-methyl-pyrazol-4-yl]-2-(2,6-difluorophenyl)thiazole-4-carboxamide] | – | – | < 4.60
– | 8.07 | COC1CC(N)CCN(c2c(NC(=O)c3nc(-c4c(F)cccc4F)sc3N)cnn2C)C1 (stereo not drawn) [Example 321, 5-amino-N-[5-(5-amino-3-methoxy-azepan-1-yl)-1-methyl-pyrazol-4-yl]-2-(2,6-difluorophenyl)thiazole-4-carboxamide] | – | – | < 4.60
5.31 | – | Cn1ncc(NC(=O)c2nc(-c3c(F)cccc3F)sc2N)c1N1CCCC2(CCCN2)CC1 (stereo not drawn) [Example 351, 5-amino-N-[5-(1,9-diazaspiro[4.6]undecan-9-yl)-1-methyl-pyrazol-4-yl]-2-(2,6-difluorophenyl)thiazole-4-carboxamide] | – | 5.25 | –
6.77 | – | Cn1ncc(NC(=O)c2nc(-c3c(F)cccc3F)sc2N)c1N1CC2CNCC(C1)O2 [Example 354, 5-amino-2-(2,6-difluorophenyl)-N-[1-methyl-5-(9-oxa-3,7-diazabicyclo[3.3.1]nonan-3-yl)pyrazol-4-yl]thiazole-4-carboxamide] | – | 4.84 | –
– | 5.62 | CNC1CCN(c2c(NC(=O)c3nc(-c4c(F)cccc4F)sc3N)cnn2C)CC(F)(F)C1 (stereo not drawn) [Example 408, 5-amino-N-[5-[3,3-difluoro-5-(methylamino)azepan-1-yl]-1-methyl-pyrazol-4-yl]-2-(2,6-difluorophenyl)thiazole-4-carboxamide] | – | 4.78 | –
– | 6.04 | CNC1CCN(c2c(NC(=O)c3nc(-c4c(F)cccc4F)sc3N)cnn2C)CC(F)(F)C1 (stereo not drawn) [Example 409, 5-amino-N-[5-[3,3-difluoro-5-(methylamino)azepan-1-yl]-1-methyl-pyrazol-4-yl]-2-(2,6-difluorophenyl)thiazole-4-carboxamide] | – | – | 4.97
6.16 | – | CO[C@H]1CC=C(c2c(NC(=O)c3nc(-c4c(F)cccc4F)sc3N)cnn2C)CC[C@@H]1N [Example 410, 5-amino-N-(5-((4S,5S)-5-amino-4-methoxycyclohept-1-enyl)-1-methyl-1H-pyrazol-4-yl)-2-(2,6-difluorophenyl)thiazole-4-carboxamide] | – | 5.04 | –
5.74 | – | Cn1ncc(NC(=O)c2nc(-c3c(F)cccc3F)sc2N)c1N1CCCC(C)(N)CC1 (stereo not drawn) [Example 435, 5-amino-N-[5-(4-amino-4-methyl-azepan-1-yl)-1-methyl-pyrazol-4-yl]-2-(2,6-difluorophenyl)thiazole-4-carboxamide] | – | 5.01 | –
5.49 | – | CC1CC(N)CCN(c2c(NC(=O)c3nc(-c4c(F)cccc4F)sc3N)cnn2C)C1 (stereo not drawn) [Example 453, 5-amino-N-[5-(5-amino-3-methyl-azepan-1-yl)-1-methyl-pyrazol-4-yl]-2-(2,6-difluorophenyl)thiazole-4-carboxamide] | – | 4.85 | –
5.40 | – | Cn1ncc(NC(=O)c2nc(-c3c(F)cccc3F)sc2N)c1N1CC[C@@H](O)[C@@H](O)CC1 [Example 457, 5-amino-2-(2,6-difluorophenyl)-N-(5-((4R,5S)-4,5-dihydroxyazepan-1-yl)-1-methyl-1H-pyrazol-4-yl)thiazole-4-carboxamide] | – | < 4.60 | –
4.86 | – | Cn1ncc(NC(=O)c2nc(-c3c(F)cccc3F)sc2N)c1N1CCC2(CC1)CNCCO2 [Example 484, 5-amino-2-(2,6-difluorophenyl)-N-[1-methyl-5-(1-oxa-4,9-diazaspiro[5.5]undecan-9-yl)pyrazol-4-yl]thiazole-4-carboxamide] | – | 4.84 | –
5.06 | – | Cn1ncc(NC(=O)c2nc(-c3c(F)cccc3F)sc2N)c1N1CC[C@@H](O)[C@H](O)CC1 [Example 490, 5-amino-2-(2,6-difluorophenyl)-N-(5-((4R,5R)-4,5-dihydroxyazepan-1-yl)-1-methyl-1H-pyrazol-4-yl)thiazole-4-carboxamide] | – | < 4.60 | –
